Data as given in paper PMC2113781 (The Journal of Cell Biology, 1985).
Values joined by “and” are separate entries in the source; they are usually repeats but may differ in a detail not shown here. Identical values can stand only once.

Legend:
[1] = test system: muscarinic cholinergic receptor; assay type: cell-based, chick
[2] = test system: muscarinic binding sites; set-up: species or system chick

Row | SMILES | Effect relative to acetylcholine [1] [%] | agonistic effect on Ca2+ mobilization [1] | RH, two-sites model [2] | RL, two-sites model [2] | nH, phenomenological cooperativity model (Hill coefficient) [2] | type of antagonism [1]
1 | CC(=O)OCC[N+](C)(C)C [Acetylcholine, acetylcholine] | 100 | full agonists | 15.3 pmol/L and 20.9 pmol/L | 13.8 pmol/L and 19.4 pmol/L | 0.41 and 0.39 | 
2 | CN1[C@@H]2CC[C@H]1C[C@@H](OC(=O)C(CO)c1ccccc1)C2 (some centres unmarked) [Atropine, atropine] |  |  |  |  | 0.79 | 
3 | CC(C[N+](C)(C)C)OC(N)=O (centres unmarked) [Bethanechol, bethanechol] | 23 | partial agonist | 9.1 pmol/L | 19.9 pmol/L | 0.65 | reversible competitive antagonists
4 | C[N+](C)(C)CCOC(N)=O [Carbachol, carbachol] | 92 | full agonists | 14.6 pmol/L | 18.4 pmol/L | 0.41 | 
5 | O=C1CC[C@@](c2ccccc2)(C2CCN(Cc3ccccc3)CC2)C(=O)N1 [Dexetimide, dexetimide] |  |  |  |  | 0.63 | irreversible competitive antagonists
6 | O=C1CC[C@](c2ccccc2)(C2CCN(Cc3ccccc3)CC2)C(=O)N1 [Levetimide, levetimide] |  |  |  |  | 0.76 | reversible competitive antagonists
7 | O=C1CCCN1CC#CCN1CCCC1 [Oxotremorine, oxotremorine] |  | No reaction |  |  | 0.95 | reversible competitive antagonists
8 | CC[C@@H]1C(=O)OC[C@@H]1Cc1cncn1C [Pilocarpine, pilocarpine] |  | No reaction |  |  | 0.68 | reversible competitive antagonists
9 | CN1CCN(CC(=O)N2c3ccccc3C(=O)Nc3cccnc32)CC1 [Pirenzepine, pirenzepine] |  |  |  |  | 1.31 | reversible competitive antagonists
